Source: PMC6934184, “Selective DNA-PKcs inhibition extends the therapeutic index of localized radiotherapy and chemotherapy” (The Journal of Clinical Investigation, 2019)

Target: T1, ERBB2 (HER2) (Homo sapiens, UniProt P04626)
T1 construct: purchased Thermo Fisher Scientific (Life Technologies) SelectScreen
Assay: SelectScreen Z'LYTE
Format: biochemical
Method in brief: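 Percent values come from Thermo SelectScreen profiling of NU5455, combining activity and binding assays. CSF1R was run in Z'LYTE format at Km app ATP, and CAMK1 in Adapta format with ATP listed at 10.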

T1 sequence (P04626 23-1255): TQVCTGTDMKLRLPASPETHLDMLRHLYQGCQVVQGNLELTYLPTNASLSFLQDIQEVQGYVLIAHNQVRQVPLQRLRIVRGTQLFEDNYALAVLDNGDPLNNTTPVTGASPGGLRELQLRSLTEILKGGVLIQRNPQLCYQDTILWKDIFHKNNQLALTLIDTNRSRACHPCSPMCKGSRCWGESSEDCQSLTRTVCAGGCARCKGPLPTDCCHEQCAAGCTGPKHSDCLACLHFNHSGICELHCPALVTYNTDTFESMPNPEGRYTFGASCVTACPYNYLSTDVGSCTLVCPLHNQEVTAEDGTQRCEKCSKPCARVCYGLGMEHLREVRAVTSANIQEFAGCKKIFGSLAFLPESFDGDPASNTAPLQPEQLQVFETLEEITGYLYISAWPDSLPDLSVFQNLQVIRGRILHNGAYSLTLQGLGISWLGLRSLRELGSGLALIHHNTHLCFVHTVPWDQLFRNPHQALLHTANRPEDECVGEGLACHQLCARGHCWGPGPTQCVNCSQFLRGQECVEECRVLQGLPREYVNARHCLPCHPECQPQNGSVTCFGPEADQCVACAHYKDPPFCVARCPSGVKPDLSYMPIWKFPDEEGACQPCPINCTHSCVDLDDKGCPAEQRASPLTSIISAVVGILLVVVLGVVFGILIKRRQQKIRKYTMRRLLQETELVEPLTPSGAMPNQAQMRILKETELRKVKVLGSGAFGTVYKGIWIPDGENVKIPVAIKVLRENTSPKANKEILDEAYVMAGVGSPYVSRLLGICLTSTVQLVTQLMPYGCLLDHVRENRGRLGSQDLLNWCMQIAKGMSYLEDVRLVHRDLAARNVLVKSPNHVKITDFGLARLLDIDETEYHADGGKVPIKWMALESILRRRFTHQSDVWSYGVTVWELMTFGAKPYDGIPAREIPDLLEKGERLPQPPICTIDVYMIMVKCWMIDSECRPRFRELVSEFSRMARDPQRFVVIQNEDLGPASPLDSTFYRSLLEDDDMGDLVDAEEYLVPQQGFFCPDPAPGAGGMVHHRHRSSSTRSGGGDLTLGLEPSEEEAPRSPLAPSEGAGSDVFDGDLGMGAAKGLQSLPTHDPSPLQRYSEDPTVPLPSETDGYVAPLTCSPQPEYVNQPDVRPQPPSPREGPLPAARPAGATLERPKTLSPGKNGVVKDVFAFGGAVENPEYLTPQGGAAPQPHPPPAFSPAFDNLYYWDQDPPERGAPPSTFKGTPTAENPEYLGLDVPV

Question: Which inhibition at 1 µM does the source give for `CN(C(=O)CN1CCOCC1)c1ccc2sc3c(-c4cccc5c(=O)cc(N6CC7CCC(C6)O7)oc45)cccc3c2c1` [NU5455] here?
Answer: 5.6%
